Reference: PubChem BioAssay AID258 (DTP/NCI, 2004)
Several values for one entry are separate records, joined by “and”; a condition that tells them apart may be missing. Identical values can stand only once. Toxic doses and inconclusive results are not listed.

Test system: CD2F1 mice, L1210 leukemia sc, survival T/C
Assay: NCI In Vivo Anticancer Drug Screen. Data for tumor model L1210 Leukemia (subcutaneous) in CD2F1 (CDF1) mice
Conditions: endpoint: median survival time, higher = longer survival
Method in brief: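 Mice with transplanted tumor dosed; survival/tumor size read; T/C vs vehicle controls.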

[1] = dose: 14.0 mg/kg/injection, schedule: Q01DX Z (sc), vehicle: water
[2] = dose: 23.0 mg/kg/injection, schedule: Q01DX Z (sc), vehicle: water

SMILES: NCCCNCCCCNC(=O)C(O)NC(=O)CC(O)CCCCN=C(N)N (centres undefined)
- T/C (dose: 3.0 mg/kg/injection, schedule: Q01DX009 (ip), vehicle: saline): 156 % of control
- T/C (dose: 6.0 mg/kg/injection, schedule: Q01DX009 (ip), vehicle: saline): 168 % of control
- T/C (dose: 6.25 mg/kg/injection, schedule: Q01DX009 (ip), vehicle: saline): 163 % of control
- T/C (dose: 12.0 mg/kg/injection, schedule: Q01DX009 (ip), vehicle: saline): 196 % of control
- T/C (dose: 12.5 mg/kg/injection, schedule: Q01DX009 (ip), vehicle: saline): 184 % of control
- T/C (dose: 25.0 mg/kg/injection, schedule: Q01DX009 (ip), vehicle: saline): 208 % of control and 210 % of control
- T/C (dose: 50.0 mg/kg/injection, schedule: Q01DX009 (ip), vehicle: saline): 198 % of control and 216 % of control
- T/C (dose: 100.0 mg/kg/injection, schedule: Q01DX009 (ip), vehicle: saline): 220 % of control

SMILES: CCOC(=O)NP(=O)(N1CC1)N1CC1
- T/C [1]: 172 % of control
- T/C [2]: 161 % of control

SMILES: S=c1nc[nH]c2c1ncn2C1CCCC1
- T/C (dose: 108.0 mg/kg/injection, schedule: Q01DX Z (sc), vehicle: methylcellulose (MC)): 100 % of control
- T/C (dose: 180.0 mg/kg/injection, schedule: Q01DX Z (sc), vehicle: methylcellulose (MC)): 100 % of control
- T/C (dose: 300.0 mg/kg/injection, schedule: Q01DX Z (sc), vehicle: methylcellulose (MC)): 100 % of control
- T/C (dose: 500.0 mg/kg/injection, schedule: Q01DX Z (sc), vehicle: methylcellulose (MC)): 100 % of control
- T/C (dose: 833.0 mg/kg/injection, schedule: Q01DX Z (sc), vehicle: methylcellulose (MC)): 100 % of control
- T/C (dose: 1388.0 mg/kg/injection, schedule: Q01DX Z (sc), vehicle: methylcellulose (MC)): 100 % of control

SMILES: Nc1cc(C(=O)Nc2ccc(C3=NCCN3)cc2)ccc1C(=O)Nc1ccc(C2=NCCN2)cc1
- T/C (dose: 3.0 mg/kg/injection, schedule: Q01DX Z (sc), vehicle: methylcellulose (MC)): 111 % of control
- T/C (dose: 3.0 mg/kg/injection, schedule: Q01DX Z (sc), vehicle: water): 116 % of control
- T/C (dose: 5.0 mg/kg/injection, schedule: Q01DX Z (sc), vehicle: methylcellulose (MC)): 200 % of control
- T/C (dose: 5.0 mg/kg/injection, schedule: Q01DX Z (sc), vehicle: water): 266 % of control
- T/C (dose: 8.4 mg/kg/injection, schedule: Q01DX Z (sc), vehicle: methylcellulose (MC)): 255 % of control
- T/C (dose: 8.4 mg/kg/injection, schedule: Q01DX Z (sc), vehicle: water): 294 % of control
- T/C (dose: 14.0 mg/kg/injection, schedule: Q01DX Z (sc), vehicle: methylcellulose (MC)): 200 % of control
- T/C [1]: 266 % of control
- T/C (dose: 23.0 mg/kg/injection, schedule: Q01DX Z (sc), vehicle: methylcellulose (MC)): 161 % of control
- T/C [2]: 288 % of control
- T/C (dose: 39.0 mg/kg/injection, schedule: Q01DX Z (sc), vehicle: methylcellulose (MC)): 155 % of control
- T/C (dose: 39.0 mg/kg/injection, schedule: Q01DX Z (sc), vehicle: water): 211 % of control
- T/C (dose: 65.0 mg/kg/injection, schedule: Q01DX Z (sc), vehicle: methylcellulose (MC)): 155 % of control
- T/C (dose: 65.0 mg/kg/injection, schedule: Q01DX Z (sc), vehicle: water): 200 % of control

SMILES: CCN(CC)c1ccc2cc3ccc(=[N+](CC)CC)cc-3oc2c1
- T/C (dose: 0.5 mg/kg/injection, schedule: Q01DX Z (sc), vehicle: methylcellulose (MC)): 100 % of control
- T/C (dose: 1.0 mg/kg/injection, schedule: Q01DX Z (sc), vehicle: methylcellulose (MC)): 100 % of control
- T/C (dose: 2.0 mg/kg/injection, schedule: Q01DX Z (sc), vehicle: methylcellulose (MC)): 100 % of control
- T/C (dose: 4.0 mg/kg/injection, schedule: Q01DX Z (sc), vehicle: methylcellulose (MC)): 100 % of control
- T/C (dose: 8.0 mg/kg/injection, schedule: Q01DX Z (sc), vehicle: methylcellulose (MC)): 100 % of control

SMILES: CC[C@@]1(O)C(=O)OCc2c1cc1n(c2=O)Cc2cc3ccccc3nc2-1
- T/C (dose: 0.13 mg/kg/injection, schedule: Q01DX Z (sc), vehicle: carboxymethylcellulose (CMC)): 111 % of control
- T/C (dose: 0.22 mg/kg/injection, schedule: Q01DX Z (sc), vehicle: carboxymethylcellulose (CMC)): 111 % of control
- T/C (dose: 0.6 mg/kg/injection, schedule: Q01DX Z (sc), vehicle: carboxymethylcellulose (CMC)): 111 % of control
- T/C (dose: 1.0 mg/kg/injection, schedule: Q01DX Z (sc), vehicle: carboxymethylcellulose (CMC)): 122 % of control

SMILES: CC(CN1CC(=O)NC(=O)C1)N1CC(=O)NC(=O)C1 (centres undefined)
- T/C (dose: 1.25 mg/kg/injection, schedule: Q01DX009 (ip), vehicle: saline with Tween-80): 119 % of control
- T/C (dose: 1.88 mg/kg/injection, schedule: Q01DX009 (sc), vehicle: saline with Tween-80): 113 % of control
- T/C (dose: 2.5 mg/kg/injection, schedule: Q01DX009 (ip), vehicle: saline with Tween-80): 114 % of control
- T/C (dose: 15.0 mg/kg/injection, schedule: Q01DX009 (ip), vehicle: saline with Tween-80): 159 % of control
- T/C (dose: 15.0 mg/kg/injection, schedule: Q01DX009 (sc), vehicle: saline with Tween-80): 178 % of control
- T/C (dose: 15.0 mg/kg/injection, schedule: Q01DX009 (sc), vehicle: saline): 124 % of control
- T/C (dose: 20.0 mg/kg/injection, schedule: Q01DX009 (sc), vehicle: saline with Tween-80): 156 % of control
- T/C (dose: 30.0 mg/kg/injection, schedule: Q01DX009 (ip), vehicle: saline with Tween-80): 178 % of control
- T/C (dose: 35.0 mg/kg/injection, schedule: Q01DX009 (sc), vehicle: saline with Tween-80): 191 % of control
- T/C (dose: 40.0 mg/kg/injection, schedule: Q01DX009 (ip), vehicle: saline with Tween-80): 165 % of control
- T/C (dose: 40.0 mg/kg/injection, schedule: Q01DX009 (sc), vehicle: saline with Tween-80): 186 % of control
- T/C (dose: 45.0 mg/kg/injection, schedule: Q01DX009 (sc), vehicle: saline with Tween-80): 190 % of control and 192 % of control
- T/C (dose: 50.0 mg/kg/injection, schedule: Q01DX009 (sc), vehicle: saline with Tween-80): 195 % of control
- T/C (dose: 60.0 mg/kg/injection, schedule: Q01DX009 (sc), vehicle: saline with Tween-80): 164 % of control
- T/C (dose: 90.0 mg/kg/injection, schedule: Q01DX009 (ip), vehicle: saline with Tween-80): 123 % of control
- T/C (dose: 100.0 mg/kg/injection, schedule: Q01DX009 (sc), vehicle: saline with Tween-80): 163 % of control
- T/C (dose: 108.0 mg/kg/injection, schedule: Q04DX003 (sc), vehicle: Klucel (hydroxypropylcellulose) (HPC)): 119 % of control and 122 % of control
- T/C (dose: 120.0 mg/kg/injection, schedule: Q01DX009 (ip), vehicle: saline with Tween-80): 158 % of control
- T/C (dose: 120.0 mg/kg/injection, schedule: Q01DX009 (sc), vehicle: saline): 157 % of control
- T/C (dose: 180.0 mg/kg/injection, schedule: Q04DX003 (sc), vehicle: Klucel (hydroxypropylcellulose) (HPC)): 122 % of control
- T/C (dose: 240.0 mg/kg/injection, schedule: Q01DX009 (ip), vehicle: saline with Tween-80): 97 % of control
- T/C (dose: 240.0 mg/kg/injection, schedule: Q01DX009 (sc), vehicle: saline with Tween-80): 86 % of control
- T/C (dose: 300.0 mg/kg/injection, schedule: Q04DX003 (sc), vehicle: Klucel (hydroxypropylcellulose) (HPC)): 153 % of control
- T/C (dose: 833.0 mg/kg/injection, schedule: Q04DX003 (sc), vehicle: Klucel (hydroxypropylcellulose) (HPC)): 111 % of control and 112 % of control

SMILES: N[C@H](C(=O)O)[C@@H]1CC(Cl)=NO1
- T/C (dose: 2.0 mg/kg/injection, schedule: Q01DX009 (sc), vehicle: saline): 116 % of control

SMILES: CCOC1=C(N2CC2)C(=O)C(OCC)=C(N2CC2)C1=O
- T/C (dose: 3.0 mg/kg/injection, schedule: Q01DX Z (sc), vehicle: carboxymethylcellulose (CMC)): 113 % of control
- T/C (dose: 5.0 mg/kg/injection, schedule: Q01DX Z (sc), vehicle: carboxymethylcellulose (CMC)): 118 % of control
- T/C (dose: 8.4 mg/kg/injection, schedule: Q01DX Z (sc), vehicle: carboxymethylcellulose (CMC)): 113 % of control
- T/C (dose: 14.0 mg/kg/injection, schedule: Q01DX Z (sc), vehicle: carboxymethylcellulose (CMC)): 109 % of control
- T/C (dose: 23.0 mg/kg/injection, schedule: Q01DX Z (sc), vehicle: carboxymethylcellulose (CMC)): 100 % of control
